The target of assay [1] is T1, NfnB (Mycolicibacterium smegmatis, UniProt A0R6D0).
T1 construct: purified NfnB protein
Briefly: LC/MS/MS detection of conversion of DNB1 to its hydroxylamine by purified NfnB. The class given is biochemical.

In assay [2] the target is T2, DprE1 (MSMEG_6382) (Mycolicibacterium smegmatis, UniProt A0R607).
T2 construct: recombinant DprE1 expressed as N-terminal six-histidine and thioredoxin fusion (pET-32b), digested with PreScission Protease
The experiment in a line: steady-state fluorescence titration (enzyme-bound FAD fluorescence). The class given is binding.

Structures are written as SMILES.

For `COc1ccc(OCCNC(=O)c2cc([N+](=O)[O-])cc([N+](=O)[O-])c2)cc1` [DNB1, N-(2-(4-methoxyphenoxy)ethyl)-3,5-dinitrobenzamide], in assay [1], the “LC/MS/MS detection of conversion of DNB1 to its hydroxylamine by purified NfnB” value is “NfnB was able to convert DNB1 into the corresponding hydroxyl amine-derivative in the presence of NADPH”. In addition, the Kd (commonly the concentration at which binding is half-saturated) in assay [2] came out at 7.3 ± 0.8 µM.

Consider `O=C(NCCOCc1cccc(Cl)c1)c1cc([N+](=O)[O-])cc([N+](=O)[O-])c1` [DNB3, N-(2-(3-chlorobenzyloxy)ethyl)-3,5-dinitrobenzamide], for which binding in assay [2] was put at a Kd of 1.8 ± 0.1 µM.

Source of the values: article PMC3206020, “Analogous Mechanisms of Resistance to Benzothiazinones and Dinitrobenzamides in Mycobacterium smegmatis” (PLoS ONE, 2011).
